Source: US6710049B2, “Azole compounds as anti-fungal agents” (Ranbaxy Laboratories Limited, priority 2000, dated 2004)

Key:
[1] = system: C albicans A-26; test: MIC determination (NCCLS broth method); assay type: cell-based, Candida albicans
Excerpt: (§1) The in-vitro evaluation of the antifungal activity of the compounds can be performed by determining the minimum inhibitory concentration (MIC) as shown in Table 1 which is the concentration of the test compound in Rosewell Park Memorial Institute (RPMI) 1640 liquid medium buffered with 3-(Morpholino)propanesulphonic acid (MOPS) to pH 7, at which there is significant inhibition of the particular fungi. In practice the National Committee for Clinical Laboratory Standard (NCCLS) M27A document for Candida and Cryptococcus and M38P for Aspergillus was used to determine the MIC against yeast and filamentous fungi with suitable modifications for dermatophytes to other filamentous fungi. Three quality control strains were included each time the MIC were determined and readings recorded only when the Quality Control results fell into the acceptable range. After MIC results had been recorded, 100 μl from each of the well showing no growth was spread over Sabouraud Dextrose Agar (SDA) to determine the minimum fungicidal concentration (MFC) as shown in Table 2.

[2] = system: C albicans Y01.19; test: MIC determination (NCCLS broth method); assay type: cell-based, Candida albicans
Excerpt: as §1

[3] = system: A flavus E2 - 1043; test: MIC determination (NCCLS broth method); assay type: cell-based
Excerpt: as §1

[4] = system: A flavus E3 - 1044; test: MIC determination (NCCLS broth method); assay type: cell-based
Excerpt: as §1

[5] = system: A flavus E4 - 1042; test: MIC determination (NCCLS broth method); assay type: cell-based
Excerpt: as §1

[6] = system: A flavus P2 - 1045; test: MIC determination (NCCLS broth method); assay type: cell-based
Excerpt: as §1

[7] = system: A flavus P3 - 1041; test: MIC determination (NCCLS broth method); assay type: cell-based
Excerpt: as §1

[8] = system: A niger E5 - 1047; test: MIC determination (NCCLS broth method); assay type: cell-based
Excerpt: as §1

[9] = system: A niger P1 - 1046; test: MIC determination (NCCLS broth method); assay type: cell-based
Excerpt: as §1

[10] = system: Alternaria 1051; test: MIC determination (NCCLS broth method); assay type: cell-based
Excerpt: as §1

[11] = system: C glabrata 90030; test: MIC determination (NCCLS broth method); assay type: cell-based
Excerpt: as §1

[12] = system: C krusei 6258; test: MIC determination (NCCLS broth method); assay type: cell-based
Excerpt: as §1

[13] = system: C krusei 766.1; test: MIC determination (NCCLS broth method); assay type: cell-based
Excerpt: as §1

[14] = system: C parapsilosis 22019; test: MIC determination (NCCLS broth method); assay type: cell-based
Excerpt: as §1

[15] = system: C tropicalis 750; test: MIC determination (NCCLS broth method); assay type: cell-based
Excerpt: as §1

[16] = system: Fusarium 1050; test: MIC determination (NCCLS broth method); assay type: cell-based
Excerpt: as §1

[17] = system: Fusarium 1827C; test: MIC determination (NCCLS broth method); assay type: cell-based
Excerpt: as §1

[18] = system: Fusarium 2960C; test: MIC determination (NCCLS broth method); assay type: cell-based
Excerpt: as §1

[19] = system: Mucor (Ceylon); test: MIC determination (NCCLS broth method); assay type: cell-based
Excerpt: as §1

[20] = system: Penicillium 1641; test: MIC determination (NCCLS broth method); assay type: cell-based
Excerpt: as §1

[21] = system: Penicillium 191; test: MIC determination (NCCLS broth method); assay type: cell-based
Excerpt: as §1

[22] = system: Penicillium 2548; test: MIC determination (NCCLS broth method); assay type: cell-based
Excerpt: as §1

[23] = system: Penicillium 3162; test: MIC determination (NCCLS broth method); assay type: cell-based
Excerpt: as §1

[24] = system: Penicillium H - 1048; test: MIC determination (NCCLS broth method); assay type: cell-based
Excerpt: as §1

[25] = system: Penicillium I - 1049; test: MIC determination (NCCLS broth method); assay type: cell-based
Excerpt: as §1

[26] = system: Rhizopus (Ceylon); test: MIC determination (NCCLS broth method); assay type: cell-based
Excerpt: as §1

[27] = system: Rhizopus 1052; test: MIC determination (NCCLS broth method); assay type: cell-based
Excerpt: as §1

[28] = system: A flavus E3 - 1044; test: MFC determination (subculture on Sabouraud Dextrose Agar); assay type: cell-based
Excerpt: as §1

[29] = system: A flavus E4 - 1042; test: as above; assay type: cell-based
Excerpt: as §1

[30] = system: A flavus P2 - 1045; test: as above; assay type: cell-based
Excerpt: as §1

[31] = system: A flavus P3 - 1041; test: as above; assay type: cell-based
Excerpt: as §1

[32] = system: A niger E5 - 1047; test: as above; assay type: cell-based
Excerpt: as §1

[33] = system: A niger P1 - 1046; test: as above; assay type: cell-based
Excerpt: as §1

[34] = system: Alternaria 1051; test: as above; assay type: cell-based
Excerpt: as §1

[35] = system: C krusei 6258; test: as above; assay type: cell-based
Excerpt: as §1

[36] = system: Fusarium (Ceylon); test: as above; assay type: cell-based; details: read-out: Minimum Fungicidal Concentration (MFC)
Excerpt: as §1

[37] = system: Fusarium 18270; test: as above; assay type: cell-based
Excerpt: as §1

[38] = system: Fusarium 29600; test: as above; assay type: cell-based; details: Fusarium, 29600, read-out: Minimum Fungicidal Concentration (MFC)
Excerpt: as §1

[39] = system: Penicillium 1641; test: as above; assay type: cell-based
Excerpt: as §1

[40] = system: Penicillium 191; test: as above; assay type: cell-based
Excerpt: as §1

[41] = system: Penicillium 2306; test: as above; assay type: cell-based
Excerpt: as §1

[42] = system: Penicillium 2548; test: as above; assay type: cell-based
Excerpt: as §1

[43] = system: Penicillium 31620; test: as above; assay type: cell-based
Excerpt: as §1

[44] = system: Penicillium H - 1048; test: as above; assay type: cell-based
Excerpt: as §1

[45] = system: Penicillium I - 1049; test: as above; assay type: cell-based
Excerpt: as §1

[46] = system: Rhizopus (Ceylon); test: as above; assay type: cell-based
Excerpt: as §1

[47] = system: Rhizopus 1052; test: as above; assay type: cell-based
Excerpt: as §1

[48] = system: H capsulatum; test: MIC determination (NCCLS broth method); assay type: cell-based
Excerpt: as §1

[49] = read-out: Minimum Inhibitory Concentration (MIC)
[50] = read-out: Minimum Fungicidal Concentration (MFC)

CCC(C)n1ncn(-c2ccc(N3CCN(c4ccc(OCC5COC(Cn6cncn6)(c6ccc(Cl)cc6Cl)O5)cc4)CC3)cc2)c1=O (centres unmarked) [Itraconazole]
1 µg/mL: MFC [43, 50]
16 µg/mL: MIC [18, 49] | MIC ([24]; H1048, read-out: Minimum Inhibitory Concentration (MIC)) | MIC ([25]; I1049, read-out: Minimum Inhibitory Concentration (MIC)) | MIC [27, 49] | MFC [41, 50]
0.03 µg/mL: MIC [3, 49] | MIC [4, 49] | MIC [8, 49] | MIC [14, 49] | MFC [28, 50]
> 128 µg/mL: MFC [36] | MFC [38] | MFC ([44]; H1048, read-out: Minimum Fungicidal Concentration (MFC)) | MFC ([45]; I1049, read-out: Minimum Fungicidal Concentration (MFC))
0.5 µg/mL: MIC [11, 49] | MIC [13, 49]
8 µg/mL: MFC [47, 50]
0.016 µg/mL: MIC ([1]; Candida albicans, A26, read-out: Minimum Inhibitory Concentration (MIC)) | MIC [15, 49]
32 µg/mL: MFC [34, 50]
128 µg/mL: MIC [17, 49] | MFC ([37]; Fusarium, 18270, read-out: Minimum Fungicidal Concentration (MFC)) | MFC [46, 50]
0.25 µg/mL: MIC ([2]; Candida albicans, read-out: Minimum Inhibitory Concentration (MIC)) | MIC [12, 49] | MIC [20, 49] | MIC [22, 49] | MIC [23, 49] | MFC [30, 50] | MFC [33, 50]
0.06 µg/mL: MIC [5, 49] | MIC [6, 49] | MIC [7, 49] | MIC [21, 49] | MFC [31, 50] | MFC [39, 50] | MFC [40, 50] | MFC [42, 50]
0.125 µg/mL: MIC [9, 49] | MIC [10, 49] | MIC [19, 49] | MFC [29, 50] | MFC [32, 50]
64 µg/mL: MIC [16, 49] | MIC [26, 49] | MFC [35, 50]

C[C@@H]1[C@H](O)[C@@H](C)/C=C/C=C/C=C/C=C/C=C/C=C/C=C/[C@H](O[C@@H]2O[C@H](C)[C@@H](O)[C@H](N)[C@@H]2O)C[C@@H]2O[C@](O)(C[C@@H](O)C[C@@H](O)[C@H](O)CC[C@@H](O)C[C@@H](O)CC(=O)O[C@H]1C)C[C@H](O)[C@H]2C(=O)O [Amphotericin-B, Amphotericin B]
0.5 µg/mL: Minimum Inhibitory Concentration (MIC) [7] | Minimum Inhibitory Concentration (MIC) [16] | Minimum Inhibitory Concentration (MIC) [18] | Minimum Fungicidal Concentration (MFC) [28] | Minimum Fungicidal Concentration (MFC) [31] | Minimum Fungicidal Concentration (MFC) [41]
16 µg/mL: Minimum Fungicidal Concentration (MFC) [39]
64 µg/mL: Minimum Inhibitory Concentration (MIC) [26] | Minimum Fungicidal Concentration (MFC) [46]
0.125 µg/mL: Minimum Inhibitory Concentration (MIC) [2] | Minimum Inhibitory Concentration (MIC) [5] | Minimum Fungicidal Concentration (MFC) [29]
1 µg/mL: Minimum Inhibitory Concentration (MIC) [3] | Minimum Inhibitory Concentration (MIC) [4] | Minimum Inhibitory Concentration (MIC) [6] | Minimum Inhibitory Concentration (MIC) [10] | Minimum Fungicidal Concentration (MFC) [30] | Minimum Fungicidal Concentration (MFC) [35]
0.25 µg/mL: Minimum Inhibitory Concentration (MIC) [1] | Minimum Inhibitory Concentration (MIC) [8] | Minimum Inhibitory Concentration (MIC) [9] | Minimum Inhibitory Concentration (MIC) [11] | Minimum Inhibitory Concentration (MIC) [12] | Minimum Inhibitory Concentration (MIC) [13] | Minimum Inhibitory Concentration (MIC) [14] | Minimum Inhibitory Concentration (MIC) [15] | Minimum Inhibitory Concentration (MIC) [21] | Minimum Inhibitory Concentration (MIC) [23] | Minimum Inhibitory Concentration (MIC) [24] | Minimum Inhibitory Concentration (MIC) [25] | Minimum Fungicidal Concentration (MFC) [32] | Minimum Fungicidal Concentration (MFC) [33] | Minimum Fungicidal Concentration (MFC) [43]
0.06 µg/mL: Minimum Inhibitory Concentration (MIC) [19] | Minimum Inhibitory Concentration (MIC) [20] | Minimum Inhibitory Concentration (MIC) [27]
2 µg/mL: Minimum Fungicidal Concentration (MFC) [40] | Minimum Fungicidal Concentration (MFC) [44]
8 µg/mL: Minimum Fungicidal Concentration (MFC) [47]
4 µg/mL: Minimum Fungicidal Concentration (MFC) [42] | Minimum Fungicidal Concentration (MFC) [45]
>128 µg/mL: Minimum Inhibitory Concentration (MIC) [17] | Minimum Fungicidal Concentration (MFC) [34]
0.03 µg/mL: Minimum Inhibitory Concentration (MIC) [22]

C[C@@H](n1ncn(-c2ccc(OCC(F)(F)C(F)F)cc2)c1=O)[C@](O)(Cn1cncn1)c1ccc(F)cc1F [TAK 187, 2-[(1R,2R)-2-(2,4-difluorophenyl)-2-hydroxy-1-methyl-3-(1H-1,2,4-triazol-1-yl)propyl]-4-(2′,2′,3′,3′-tetraflouropropoxyphenyl)-3(2H,4H)-1,2,4-triazolone]
4 µg/mL: Minimum Inhibitory Concentration (MIC) [3] | Minimum Inhibitory Concentration (MIC) [5] | Minimum Inhibitory Concentration (MIC) [6]
1 µg/mL: Minimum Inhibitory Concentration (MIC) [4] | Minimum Inhibitory Concentration (MIC) [10]
0.03 µg/mL: Minimum Inhibitory Concentration (MIC) [14]
0.5 µg/mL: Minimum Inhibitory Concentration (MIC) [9] | Minimum Inhibitory Concentration (MIC) [11] | Minimum Fungicidal Concentration (MFC) [33]
64 µg/mL: Minimum Inhibitory Concentration (MIC) [16] | Minimum Fungicidal Concentration (MFC) [35]
128 µg/mL: Minimum Fungicidal Concentration (MFC) [45]
2 µg/mL: Minimum Inhibitory Concentration (MIC) [2] | Minimum Inhibitory Concentration (MIC) [8] | Minimum Inhibitory Concentration (MIC) [12] | Minimum Inhibitory Concentration (MIC) [13] | Minimum Inhibitory Concentration (MIC) [26] | Minimum Fungicidal Concentration (MFC) [32]
16 µg/mL: Minimum Inhibitory Concentration (MIC) [20] | Minimum Inhibitory Concentration (MIC) [21] | Minimum Inhibitory Concentration (MIC) [22] | Minimum Inhibitory Concentration (MIC) [24] | Minimum Inhibitory Concentration (MIC) [25] | Minimum Fungicidal Concentration (MFC) [34] | Minimum Fungicidal Concentration (MFC) [40] | Minimum Fungicidal Concentration (MFC) [41] | Minimum Fungicidal Concentration (MFC) [42] | Minimum Fungicidal Concentration (MFC) [43]
0.125 µg/mL: Minimum Inhibitory Concentration (MIC) [15]
8 µg/mL: Minimum Inhibitory Concentration (MIC) [7] | Minimum Inhibitory Concentration (MIC) [19] | Minimum Inhibitory Concentration (MIC) [27] | Minimum Fungicidal Concentration (MFC) [28]
0.25 µg/mL: Minimum Inhibitory Concentration (MIC) [48]
>128 µg/mL: Minimum Fungicidal Concentration (MFC) [44] | Minimum Fungicidal Concentration (MFC) [46]
32 µg/mL: Minimum Inhibitory Concentration (MIC) [17] | Minimum Inhibitory Concentration (MIC) [18] | Minimum Inhibitory Concentration (MIC) [23] | Minimum Fungicidal Concentration (MFC) [30] | Minimum Fungicidal Concentration (MFC) ([37]; Fusarium 18270) | Minimum Fungicidal Concentration (MFC) [39] | Minimum Fungicidal Concentration (MFC) [47]
